Legend:
Assay in all cases: relative viability (nuclei count vs DMSO), 5 days (fraction); higher = more cells survive
[1] = tested on: NCI-H1792
Procedure, shortened: (§1)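 Lung cancer cell lines in 1536-well plates were dosed by pin tool the day after seeding, either with one drug alone or with a fixed anchor-drug dose plus five library-drug doses (not always all listed) in √10 steps. After 5 days, cells were fixed and their nuclei stained in one step (final 0.05% Triton X-100, 1% formaldehyde, 1 ug/ml Hoechst), then counted on 4× images. Relative viability is the nuclei count in treated wells divided by that in vehicle wells. Values are medians of duplicate plates.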

[2] = tested on: LU99A
Procedure, shortened: as §1

[3] = tested on: HCC-827
Procedure, shortened: as §1

[4] = tested on: NCI-H2126
Procedure, shortened: as §1

[5] = tested on: SK-MES-1
Procedure, shortened: as §1

[6] = tested on: NCI-H727
Procedure, shortened: as §1

[7] = tested on: NCI-H1734
Procedure, shortened: as §1

[8] = tested on: COR-L 105
Procedure, shortened: as §1

[9] = tested on: BEN
Procedure, shortened: as §1

[10] = tested on: LCLC-97TM1
Procedure, shortened: as §1

[11] = tested on: SW 1573
Procedure, shortened: as §1

[12] = tested on: EMC-BAC-2
Procedure, shortened: as §1

[13] = tested on: LOU-NH91
Procedure, shortened: as §1

[14] = tested on: RERF-LC-KJ
Procedure, shortened: as §1

[15] = tested on: EKVX
Procedure, shortened: as §1

[16] = tested on: EPLC-272H
Procedure, shortened: as §1

[17] = tested on: NCI-H358
Procedure, shortened: as §1

[18] = tested on: LK-2
Procedure, shortened: as §1

[19] = tested on: NCI-H2087
Procedure, shortened: as §1

[20] = tested on: HCC-78
Procedure, shortened: as §1

[21] = tested on: NCI-H1944
Procedure, shortened: as §1

O=C(O)CCCCC(CCSCc1ccccc1)SCc1ccccc1 (centres undefined) [CPI-613] + Cc1nc(NC(=O)N2CCC[C@H]2C(N)=O)sc1-c1ccnc(C(C)(C)C(F)(F)F)c1 [Alpelisib] (partner 2 µM)
relative viability ([1]; first compound 5 µM): 0.675
relative viability ([1]; first compound 15.81 µM): 0.646
relative viability ([1]; first compound 50 µM): 0.71
relative viability ([1]; first compound 158.11 µM): 0.555
relative viability ([1]; first compound 500 µM): 0.709
relative viability ([2]; first compound 5 µM): 0.535
relative viability ([2]; first compound 15.81 µM): 0.51
relative viability ([2]; first compound 50 µM): 0.461
relative viability ([2]; first compound 158.11 µM): 0.227
relative viability ([2]; first compound 500 µM): 0.0551
relative viability ([3]; first compound 5 µM): 0.972
relative viability ([3]; first compound 15.81 µM): 1
relative viability ([3]; first compound 50 µM): 0.974
relative viability ([3]; first compound 158.11 µM): 0.47
relative viability ([3]; first compound 500 µM): 0.218
relative viability ([4]; first compound 5 µM): 0.755
relative viability ([4]; first compound 15.81 µM): 0.815
relative viability ([4]; first compound 50 µM): 0.78
relative viability ([4]; first compound 158.11 µM): 0.749
relative viability ([4]; first compound 500 µM): 0.747
relative viability ([5]; first compound 5 µM): 0.894
relative viability ([5]; first compound 15.81 µM): 0.982
relative viability ([5]; first compound 50 µM): 0.784
relative viability ([5]; first compound 158.11 µM): 0.724
relative viability ([5]; first compound 500 µM): 0.785
relative viability ([6]; first compound 5 µM): 0.531
relative viability ([6]; first compound 15.81 µM): 0.558
relative viability ([6]; first compound 50 µM): 0.662
relative viability ([6]; first compound 158.11 µM): 0.226
relative viability ([6]; first compound 500 µM): 0.0618
relative viability ([7]; first compound 5 µM): 0.629
relative viability ([7]; first compound 15.81 µM): 0.694
relative viability ([7]; first compound 50 µM): 0.625
relative viability ([7]; first compound 158.11 µM): 0.493
relative viability ([7]; first compound 500 µM): 0.098
relative viability ([8]; first compound 5 µM): 0.888
relative viability ([8]; first compound 15.81 µM): 1.11
relative viability ([8]; first compound 50 µM): 0.909
relative viability ([8]; first compound 158.11 µM): 0.476
relative viability ([8]; first compound 500 µM): 0.161
relative viability ([9]; first compound 5 µM): 0.929
relative viability ([9]; first compound 15.81 µM): 0.949
relative viability ([9]; first compound 50 µM): 0.969
relative viability ([9]; first compound 158.11 µM): 0.831
relative viability ([9]; first compound 500 µM): 0.858
relative viability ([10]; first compound 5 µM): 0.216
relative viability ([10]; first compound 15.81 µM): 0.254
relative viability ([10]; first compound 50 µM): 0.311
relative viability ([10]; first compound 158.11 µM): 0.139
relative viability ([10]; first compound 500 µM): 0.0641
relative viability ([11]; first compound 5 µM): 0.729
relative viability ([11]; first compound 15.81 µM): 0.764
relative viability ([11]; first compound 50 µM): 0.806
relative viability ([11]; first compound 158.11 µM): 0.778
relative viability ([11]; first compound 500 µM): 0.669
relative viability ([12]; first compound 5 µM): 0.713
relative viability ([12]; first compound 15.81 µM): 0.702
relative viability ([12]; first compound 50 µM): 0.72
relative viability ([12]; first compound 158.11 µM): 0.68
relative viability ([12]; first compound 500 µM): 0.119
relative viability ([13]; first compound 5 µM): 0.73
relative viability ([13]; first compound 15.81 µM): 0.679
relative viability ([13]; first compound 50 µM): 0.743
relative viability ([13]; first compound 158.11 µM): 0.728
relative viability ([13]; first compound 500 µM): 0.718
relative viability ([14]; first compound 5 µM): 0.748
relative viability ([14]; first compound 15.81 µM): 1.34
relative viability ([14]; first compound 50 µM): 0.757
relative viability ([14]; first compound 158.11 µM): 0.869
relative viability ([14]; first compound 500 µM): 0.733
relative viability ([15]; first compound 5 µM): 0.802
relative viability ([15]; first compound 15.81 µM): 0.814
relative viability ([15]; first compound 50 µM): 0.903
relative viability ([15]; first compound 158.11 µM): 0.857
relative viability ([15]; first compound 500 µM): 0.965
relative viability ([16]; first compound 5 µM): 0.95
relative viability ([16]; first compound 15.81 µM): 0.813
relative viability ([16]; first compound 50 µM): 0.94
relative viability ([16]; first compound 158.11 µM): 0.923
relative viability ([16]; first compound 500 µM): 1.04
relative viability ([17]; first compound 5 µM): 0.851
relative viability ([17]; first compound 15.81 µM): 0.742
relative viability ([17]; first compound 50 µM): 0.912
relative viability ([17]; first compound 158.11 µM): 0.261
relative viability ([17]; first compound 500 µM): 0.0364
relative viability ([18]; first compound 5 µM): 1.01
relative viability ([18]; first compound 15.81 µM): 0.98
relative viability ([18]; first compound 50 µM): 1.06
relative viability ([18]; first compound 158.11 µM): 1.16
relative viability ([18]; first compound 500 µM): 0.82
relative viability ([19]; first compound 5 µM): 1.14
relative viability ([19]; first compound 15.81 µM): 0.95
relative viability ([19]; first compound 50 µM): 0.95
relative viability ([19]; first compound 158.11 µM): 0.0725
relative viability ([19]; first compound 500 µM): 0.0158
relative viability ([20]; first compound 5 µM): 0.26
relative viability ([20]; first compound 15.81 µM): 0.309
relative viability ([20]; first compound 158.11 µM): 0.338
relative viability ([20]; first compound 500 µM): 0.358
relative viability ([21]; first compound 5 µM): 0.841
relative viability ([21]; first compound 15.81 µM): 0.843
relative viability ([21]; first compound 50 µM): 0.778
relative viability ([21]; first compound 158.11 µM): 0.803
relative viability ([21]; first compound 500 µM): 0.743

Reference: the supplement of paper PMC10307832
